These results are taken from article PMC6539495, “Anti-Cancer Activity of Novel Dihydrotestosterone-Derived Ring A-Condensed Pyrazoles on Androgen Non-Responsive Prostate Cancer Cell Lines” (International Journal of Molecular Sciences, 2019).

The subject of one experiment is MRC-5 cells. As to the kind of experiment: MTT cell viability assay on non-cancerous MRC-5 fibroblasts. It counts as cell-based. The note with it: 72 hours, MTT. The method, then: (§1) HeLa, MCF-7 and MDA-MB-231 cells were obtained from Sigma-Aldrich and maintained as reported previously. MRC-5, PC-3, DU 145 cells were purchased from American Type Culture Collection (ATCC, Manassas, VA, USA). PC-3 and DU 145 were maintained in RPMI medium (Sigma-Aldrich) whereas MRC-5 cells were maintained in DMEM medium (Sigma-Aldrich). All media were complemented with 10% Fetal bovine serum (FBS, Sigma-Aldrich) 2 mM L-glutamine, 0.01% streptomycin and 0.005% ampicillin (Sigma-Aldrich). Cells were cultured under standard conditions in a 37 °C incubator containing 5% CO2 in 95% humidity.
(§2) Each test compound was dissolved in cell culture grade DMSO (Molar Chemicals, Halásztelek, Hungary) in a final concentration of […]. Antiproliferative action of the synthesized steroids was investigated by MTT assay. An amount of 5000 cells/well were seeded into 96 well plates. Twenty-four hours post seeding, all cell lines were treated with each compound in 10 and 30 μM concentrations for 72 hours. […] After 72 hours, cells were washed with PBS and incubated with culture medium containing 0.5 mg/mL MTT (3-(4, 5-dimethylthiazolyl-2)-2,5-diphenyltetrazolium bromide) reagent (SERVA, GmbH, Heidelberg, Germany) for an hour at 37 °C. Formazan crystals were solubilized in DMSO and extinction was measured at 570 nm using a Synergy HTX plate reader (BioTech-Hungary, Budapest, Hungary). MTT assays were performed at least three times using four independent biological replicates. Data were normalized to solvent controls and the graphical representation of the obtained data as well as the calculation of IC50 values were carried out by GraphPad Prism 7 software (GraphPad Software; San Diego, CA, USA).

The next experiment has as its system DU 145 cells. Kind of experiment: MTT cell viability assay on DU 145 prostate cancer cells. It counts as cell-based, human. The note with it: 72 hours. The method, then:
as §1, §2

In a further experiment the test system is PC-3 cells. As to the kind of experiment: MTT cell viability assay on PC-3 prostate cancer cells. In kind it is cell-based, human. As to conditions: for antiproliferative potency against PC-3 prostate cancer cells compared to MRC-5 non-cancerous fibroblasts: primary screen. The protocol:
as §1, §2

The subject of the next experiment is HeLa cells. As to the kind of experiment: MTT cell viability assay on HeLa cervical cancer cells. In kind it is cell-based, human. The note with it: 72 hours. The protocol:
as §1, §2

The subject of another experiment is MCF-7 cells. As to the kind of experiment: MTT cell viability assay on MCF-7 breast cancer cells. It counts as cell-based, human. The note with it: 72 hours. The protocol: as §1, §2
In a further experiment the test system is MDA-MB-231 cells. As to the kind of experiment: MTT cell viability assay on MDA-MB-231 breast cancer cells. It counts as cell-based, human. As to conditions: 72 hours. The method, then:
as §1, §2

In the case of `Cc1ccccc1-n1nc2c(c1C)C[C@@]1(C)[C@@H](CC[C@@H]3[C@@H]1CC[C@]1(C)[C@@H](O)CC[C@@H]31)C2` [4b, 17β-Hydroxy-1′-(2″-tolyl)-5′-methylpyrazolo[3′,4′:3,2]-5α-androstane], the “Mean values (%) of primary growth inhibitory screen (viability in %), MRC-5” value with MRC-5 cells (10 µM) came out at 72.9%; in the experiment with MRC-5 cells (30 µM) it was 64.2%. Besides, the “Mean values (%) of primary growth inhibitory screen (viability in %), DU 145” value in the experiment on DU 145 cells (10 µM) is recorded as 61.1%; in the experiment with DU 145 cells (30 µM), 48.3%. Moreover, the “Mean values (%) of primary growth inhibitory screen (viability in %), PC-3” value with PC-3 cells (10 µM, 72 hours, MTT) worked out at 67.5%; with PC-3 cells (30 µM, 72 hours, MTT), 54.7%. Also, the “antiproliferative potency against PC-3 prostate cancer cells compared to MRC-5 non-cancerous fibroblasts” value with PC-3 cells (10 µM) was “significantly higher”. Further, the “Mean values (%) of primary growth inhibitory screen (viability in %), HeLa” value in the experiment on HeLa cells (10 µM) stood at 36.0%; with HeLa cells (30 µM), 34.1%. Moreover, the entries for the “Mean values (%) of primary growth inhibitory screen (viability in %), MCF-7” value with MCF-7 cells (10 µM) and in the experiment on MCF-7 cells (30 µM) were 39.1% and 32.4%, respectively. The “Mean values (%) of primary growth inhibitory screen (viability in %), MDA-MB-231” value in the experiment on MDA-MB-231 cells (10 µM) is 69.0%; with MDA-MB-231 cells (30 µM), 64.0%.
Turning to `Cc1ccc(-n2nc3c(c2C)CC2(C)C(CCC4C5CCC(O)C5(C)CCC42)C3)cc1` (stereo not drawn) [4c, 17β-Hydroxy-1′-(4″-tolyl)-5′-methylpyrazolo[3′,4′:3,2]-5α-androstane], the “Mean values (%) of primary growth inhibitory screen (viability in %), MRC-5” value is given as 75.0% in the experiment on MRC-5 cells (10 µM) and 37.5% in the experiment with MRC-5 cells (30 µM). Besides, the “Mean values (%) of primary growth inhibitory screen (viability in %), DU 145” value in the experiment with DU 145 cells (10 µM) is given as 87.3%; in the experiment with DU 145 cells (30 µM), 5.1%. Besides, the “Mean values (%) of primary growth inhibitory screen (viability in %), PC-3” value with PC-3 cells (10 µM, 72 hours, MTT) was determined as 44.0%; in the experiment with PC-3 cells (30 µM, 72 hours, MTT), 4.2%. Further, the “antiproliferative potency against PC-3 prostate cancer cells compared to MRC-5 non-cancerous fibroblasts” value in the experiment on PC-3 cells (10 µM) is given as “significantly higher”. In addition, the “Mean values (%) of primary growth inhibitory screen (viability in %), HeLa” value with HeLa cells (10 µM) was 56.1%; in the experiment with HeLa cells (30 µM), 8.0%. Besides, the figures for the “Mean values (%) of primary growth inhibitory screen (viability in %), MCF-7” value in the experiment with MCF-7 cells (10 µM) and in the experiment on MCF-7 cells (30 µM) were 49.5% and 5.4%, respectively. Further, the “Mean values (%) of primary growth inhibitory screen (viability in %), MDA-MB-231” value in the experiment on MDA-MB-231 cells (10 µM) was 81.7%; in the experiment on MDA-MB-231 cells (30 µM), 12.0%.
As for `Cc1ccc(-n2nc3c(c2C)C[C@@]2(C)[C@@H](CC[C@@H]4[C@@H]2CC[C@]2(C)[C@@H](O)CC[C@@H]42)C3)c(C)c1` [4d, 17β-Hydroxy-1′-(2″,4″-dimethylphenyl)-5′-methylpyrazolo[3′,4′:3,2]-5α-androstane], the figures for the “Mean values (%) of primary growth inhibitory screen (viability in %), MRC-5” value in the experiment with MRC-5 cells (10 µM) and in the experiment with MRC-5 cells (30 µM) were 78.9% and 0.8%, respectively. The entries for the “Mean values (%) of primary growth inhibitory screen (viability in %), DU 145” value with DU 145 cells (10 µM) and in the experiment on DU 145 cells (30 µM) were 70.2% and 2.3%, respectively. Also, the “Mean values (%) of primary growth inhibitory screen (viability in %), PC-3” value in the experiment on PC-3 cells (10 µM, 72 hours, MTT) worked out at 53.4%; with PC-3 cells (30 µM, 72 hours, MTT), 3.6%. The “Mean values (%) of primary growth inhibitory screen (viability in %), HeLa” value is given as 65.6% in the experiment with HeLa cells (10 µM) and 56.1% in the experiment on HeLa cells (30 µM). For the same compound, the results for the “Mean values (%) of primary growth inhibitory screen (viability in %), MCF-7” value in the experiment with MCF-7 cells (10 µM) and in the experiment with MCF-7 cells (30 µM) were 74.5% and 10.5%, respectively. In addition, the results for the “Mean values (%) of primary growth inhibitory screen (viability in %), MDA-MB-231” value in the experiment on MDA-MB-231 cells (10 µM) and in the experiment with MDA-MB-231 cells (30 µM) were 92.0% and 47.9%, respectively.
For the compound `Cc1c2c(nn1-c1ccc(F)cc1)CC1CCC3C4CCC(O)C4(C)CCC3C1(C)C2` (stereo not drawn) [4f, 17β-Hydroxy-1′-(4″-fluorophenyl)-5′-methylpyrazolo[3′,4′:3,2]-5α-androstane], the figures for the “Mean values (%) of primary growth inhibitory screen (viability in %), MRC-5” value in the experiment on MRC-5 cells (10 µM) and in the experiment on MRC-5 cells (30 µM) were 68.7% and 14.8%, respectively. For the same compound, the “Mean values (%) of primary growth inhibitory screen (viability in %), DU 145” value in the experiment on DU 145 cells (10 µM) stood at 71.6%; in the experiment on DU 145 cells (30 µM) it was 3.9%. In addition, the “Mean values (%) of primary growth inhibitory screen (viability in %), PC-3” value in the experiment with PC-3 cells (10 µM, 72 hours, MTT) came out at 41.8%; with PC-3 cells (30 µM, 72 hours, MTT) it was 5.1%. The “Mean values (%) of primary growth inhibitory screen (viability in %), HeLa” value with HeLa cells (10 µM) is given as 46.1%; with HeLa cells (30 µM), 7.6%. The “Mean values (%) of primary growth inhibitory screen (viability in %), MCF-7” value amounted to 57.1% in the experiment with MCF-7 cells (10 µM) and 5.4% in the experiment on MCF-7 cells (30 µM). In addition, the figures for the “Mean values (%) of primary growth inhibitory screen (viability in %), MDA-MB-231” value in the experiment on MDA-MB-231 cells (10 µM) and in the experiment on MDA-MB-231 cells (30 µM) were 83.4% and 32.0%, respectively.
For `Cc1c2c(nn1-c1ccc(Cl)cc1)C[C@@H]1CC[C@@H]3[C@H](CC[C@]4(C)[C@@H](O)CC[C@@H]34)[C@@]1(C)C2` [4g, 17β-Hydroxy-1′-(4″-chlorophenyl)-5′-methylpyrazolo[3′,4′:3,2]-5α-androstane], the “Mean values (%) of primary growth inhibitory screen (viability in %), MRC-5” value in the experiment on MRC-5 cells (10 µM) turned out to be 80.1%; in the experiment with MRC-5 cells (30 µM), 1.1%. The IC50 was 15.6 ± 1.4 µM in the experiment with MRC-5 cells (± SD); 14.2 ± 1.3 µM in the experiment with DU 145 cells (± SD); 7.7 ± 1.2 µM in the experiment with PC-3 cells (MTT, 72 hours, ± SD); 7.2 ± 0.4 µM with HeLa cells (± SD); 4.4 ± 0.3 µM in the experiment with MCF-7 cells (± SD); 12.6 ± 1.5 µM in the experiment on MDA-MB-231 cells (± SD). The “Mean values (%) of primary growth inhibitory screen (viability in %), DU 145” value with DU 145 cells (10 µM) is recorded as 74.8%; in the experiment on DU 145 cells (30 µM), 1.4%. Moreover, the “Mean values (%) of primary growth inhibitory screen (viability in %), PC-3” value in the experiment on PC-3 cells (10 µM, 72 hours, MTT) was 44.6%; in the experiment with PC-3 cells (30 µM, 72 hours, MTT) it was 3.0%. The “antiproliferative potency against PC-3 prostate cancer cells compared to MRC-5 non-cancerous fibroblasts” value with PC-3 cells (10 µM) is on record as “significantly higher”. Also, the results for the “Mean values (%) of primary growth inhibitory screen (viability in %), HeLa” value in the experiment with HeLa cells (10 µM) and in the experiment on HeLa cells (30 µM) were 40.1% and 4.7%, respectively. Further, the “Mean values (%) of primary growth inhibitory screen (viability in %), MCF-7” value in the experiment with MCF-7 cells (10 µM) came out at 48.5%; in the experiment on MCF-7 cells (30 µM), 5.3%. The “Mean values (%) of primary growth inhibitory screen (viability in %), MDA-MB-231” value amounted to 78.4% in the experiment with MDA-MB-231 cells (10 µM) and 5.3% in the experiment on MDA-MB-231 cells (30 µM).
In the case of `Cc1c2c(nn1-c1ccc(Br)cc1)C[C@@H]1CC[C@@H]3[C@H](CC[C@]4(C)[C@@H](O)CC[C@@H]34)[C@@]1(C)C2` [4h, 17β-Hydroxy-1′-(4″-bromophenyl)-5′-methylpyrazolo[3′,4′:3,2]-5α-androstane], the “Mean values (%) of primary growth inhibitory screen (viability in %), MRC-5” value was found to be 92.8% in the experiment on MRC-5 cells (10 µM) and 12.7% in the experiment with MRC-5 cells (30 µM). Further, the “Mean values (%) of primary growth inhibitory screen (viability in %), DU 145” value with DU 145 cells (10 µM) came to 95.1%; in the experiment on DU 145 cells (30 µM) it was 2.2%. Moreover, the “Mean values (%) of primary growth inhibitory screen (viability in %), PC-3” value came to 61.6% with PC-3 cells (10 µM, 72 hours, MTT) and 3.6% in the experiment with PC-3 cells (30 µM, 72 hours, MTT). Also, the results for the “Mean values (%) of primary growth inhibitory screen (viability in %), HeLa” value with HeLa cells (10 µM) and in the experiment with HeLa cells (30 µM) were 38.2% and 5.8%, respectively. The “Mean values (%) of primary growth inhibitory screen (viability in %), MCF-7” value with MCF-7 cells (10 µM) came out at 54.1%; in the experiment with MCF-7 cells (30 µM) it was 5.2%. For the same compound, the “Mean values (%) of primary growth inhibitory screen (viability in %), MDA-MB-231” value in the experiment with MDA-MB-231 cells (10 µM) is 69.4%; in the experiment with MDA-MB-231 cells (30 µM), 10.5%.
